Converted amounts (≈) assume the structure as drawn. “And” between values parts separate entries of the source, which are not always exact repeats. Identical values can stand only once.
Experiments:
M. tuberculosis NTB1 = format: cell-based, Mycobacterium tuberculosis
M. tuberculosis H37Rv = conditions: stated in the Introduction; ref Makarov et al, 2009; cited from earlier work

Compound	MIC99 (M. tuberculosis NTB1) [µg/mL]	MIC (M. tuberculosis H37Rv)	fold increased resistance conferred by the Cys387Ser mutation in DprE1 (M. tuberculosis NTB1)
moxifloxicin [MXF]	0.03		
C[C@H]1COC2(CCN(c3nc(=O)c4cc(C(F)(F)F)cc([N+](=O)[O-])c4s3)CC2)O1 [BTZ043, 2-[(2S)-2-methyl-1,4-dioxa-8-azaspiro[4.5]dec-8-yl]-8-nitro-6-(trifluoromethyl)-4H-1,3-benzothia-zin-4-one]	25 (≈ 58 µM)	1 ng/ml and 2.3 nM	> 10 000 fold
O=c1nc(N2CCN(CC3CCCCC3)CC2)sc2c([N+](=O)[O-])cc(C(F)(F)F)cc12 [PBTZ169]	>100		> 10 000 fold
CO[C@H]1/C=C/O[C@@]2(C)Oc3c(C)c(O)c4c(O)c(c(/C=N/N5CCN(C)CC5)c(O)c4c3C2=O)NC(=O)/C(C)=C\C=C\[C@H](C)[C@H](O)[C@@H](C)[C@@H](O)[C@@H](C)[C@H](OC(C)=O)[C@@H]1C [RIF, rifampicin]	0.001 (≈ 0.00122 µM)		

Source: PMC3958311 (EMBO Molecular Medicine, 2014)
